Like-named read-outs stand apart in the source and are kept apart here.

The target in one experiment is BRD4 (Homo sapiens (Human), UniProt O60885). As to the kind of experiment: In vitro enzyme inhibition assay - BRD4 inhibition. In kind it is binding. The note with it: BRD4 BD1, Table 30.
Another experiment deals with CBP (Homo sapiens (Human), UniProt Q92793). As to the kind of experiment: In vitro CBP inhibition (AlphaScreen, biotinylated H4-tetraacetyl peptide). Format: binding. A digest of the protocol: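 His-tagged CBP expressed in E. coli (50 nM final) incubated with biotinylated H4K5/8/12/16(Ac) peptide (20 nM final) in 50 mM HEPES pH 7.3, 10 mM NaCl, 0.25 mM TCEP, 0.1% BSA, 0.005% Brij-35, 0.4% DMSO, 20 min at room temp.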
On the technique in general: Alpha assays give light when donor and acceptor beads are brought close together.

[1] abbreviates: Table 30, read-out: CRREBBP IC50.
[2] abbreviates: AlphaScreen, Table 29, read-out: CBP IC50.

Sequence of CBP (Q92793 1081-1197): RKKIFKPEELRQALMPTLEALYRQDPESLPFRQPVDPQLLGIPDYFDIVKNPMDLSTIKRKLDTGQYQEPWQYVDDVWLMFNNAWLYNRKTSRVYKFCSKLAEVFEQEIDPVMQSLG

As usually defined, the IC50 is the point on the concentration scale where inhibition reaches its midpoint. Consider `Cc1cc(-c2nc(NS(C)(=O)=O)ncc2Oc2ccc(F)cc2F)cn(C)c1=O` [N-(5-(2,4-difluorophenoxy)-4-(1,5-dimethyl-6-oxo-1,6-dihydropyridin-3-yl)pyrimidin-2-yl) methanesulfonamide], for which the IC50 against BRD4 was below 500 nM; at CBP (setting [1]), above 5000 nM.

Turning to `CC(c1ccccc1)n1cc(-c2cn(C)c(=O)cc2N2CCOCC2)cn1` (stereo not shown) [Example 43, 1-methyl-4-morpholino-5-(1-(1-phenylethyl)-1H-pyrazol-4-yl) pyridin-2(1H)-one], the IC50 on BRD4 was 500 to 5000 nM; at CBP (setting [2]), below 500 nM; at CBP (setting [1]), below 500 nM.

`Cn1cc(-c2cnn(-c3ccccc3S(C)(=O)=O)c2)c(-c2ccc(Cl)cc2)cc1=O` [Example 286, 4-(4-Chloro-phenyl)-5-[1-(2-methanesulfonyl-phenyl)-1H-pyrazol-4-yl]-1-methyl-1H-pyridin-2-one]: the IC50 was above 5000 nM against BRD4, below 500 nM on CBP (setting [2]) and below 500 nM on CBP (setting [1]).

In the case of `Cc1cc(-c2cnn(C(c3ccccc3)C3CC3)c2)cn(C)c1=O` (stereo not shown) [Example 18, 5-(1-(cyclopropyl (phenyl)methyl)-1H-pyrazol-4-yl)-1,3-dimethyl-pyridin-2(1H)-one], the IC50 against BRD4 was in the range of 500 to 5000 nM.

Regarding `CCOc1cc(=O)n(C)cc1-c1cnn(C(C)c2ccc(C)cc2)c1` (stereo not shown) [Example 62, 4-ethoxy-1-methyl-5-(1-(1-(p-tolyl)ethyl)-1H-pyrazol-4-yl) pyridin-2(1H)-one], the IC50 at CBP (setting [2]) was below 500 nM.

Consider `Cn1cc(-c2cnn(Cc3ccccc3)c2)c(OCC#N)cc1=O` [Example 167, [5-(1-Benzyl-1H-pyrazol-4-yl)-1-methyl-2-oxo-1,2-dihydro-pyridin-4-yloxy]-acetonitrile], for which, at CBP (setting [2]), the IC50 is below 500 nM.

Take `Cc1nn(C)c(C)c1-c1cn(C)c(=O)cc1-c1ccccc1` [Example 145, 1-methyl-4-phenyl-5-(1,3,5-tri-methyl-1H-pyrazol-4-yl) pyridin-2(1H)-one]: the IC50 at CBP (setting [2]) is 500 to 5000 nM.

Turning to `Cn1cc(-c2cnn(-c3ccccc3-c3nnn[nH]3)c2)c(C2CC2)cc1=O` [Example 301, 4-Cyclopropyl-1-methyl-5-{1-[2-(1H-tetrazol-5-yl)-phenyl]-1H-pyrazol-4-yl}-1H-pyridin-2-one], at CBP (setting [2]), the IC50 is below 500 nM.

`CNc1ncc(-c2cc(=O)n(C)cc2-c2cnn(-c3cccc(Cl)c3C#N)c2)cn1` [Example 332, 2-chloro-6-(4-(1-methyl-4-(2-(methylamino)pyrimidin-5-yl)-6-oxo-1,6-dihydropyridin-3-yl)-1H-pyrazol-1-yl)benzonitrile]: on CBP (setting [2]), the IC50 was below 500 nM.

Consider `Cn1cc(-c2cnn(-c3ccccc3)c2)c(-c2ccccc2)cc1=O` [Example 128, 1-methyl-4-phenyl-5-(1-phenyl-1H-pyrazol-4-yl) pyridin-2(1H)-one], for which the IC50 on CBP (setting [2]) is below 500 nM.

Consider `Cn1cc(-c2cnn(Cc3ccccc3)c2)c(-c2cnn(CC(N)=O)c2)cc1=O` [Example 158, 2-(4-(5-(1-benzyl-1H-pyrazol-4-yl)-1-methyl-2-oxo-1,2-dihydro-pyridin-4-yl)-1H-pyrazol-1-yl)acetamide], for which the IC50 at CBP (setting [2]) was below 500 nM.

Take `COc1ccc(C#N)cc1-n1cc(-c2cn(C)c(=O)cc2-c2ccn(C)c(=O)c2)cn1` [Example 305, 3-(4-(1,1′-dimethyl-2′,6-dioxo-1,1′,2′,6-tetrahydro-[4,4′-bipyridin]-3-yl)-1H-pyrazol-1-yl)-4-methoxybenzonitrile]: the 50% inhibitory concentration (IC50) on CBP (setting [2]) was below 500 nM.

Take `CCOc1cc(=O)n(C)cc1-c1cnn(Cc2ccc(C)cc2)c1` [Example 65, 4-ethoxy-1-methyl-5-(1-(4-methylbenzyl)-1H-pyrazol-4-yl) pyridin-2(1H)-one]: on CBP (setting [2]), the IC50 was below 500 nM.

Take `CCNc1ncc(-c2cc(=O)n(C)cc2-c2cnn(-c3cccc(F)c3C#N)c2)cn1` [Example 333, 2-[4-[4-[2-(ethylamino)pyrimidin-5-yl]-1-methyl-6-oxo-3-pyridyl]pyrazol-1-yl]-6-fluoro-benzonitrile]: the IC50 on CBP (setting [2]) was below 500 nM.

The record behind these values is US10617680B2 (CELGENE QUANTICEL RESEARCH, INC., priority 2017, dated 2020).
